# Measured values as given in publication PMC5554537 (Frontiers in Pharmacology, 2017).
# Assays:
# [1] = in vivo; settings: NIH-III, mouse, ip
# Procedure: SN30000, M14 and M18 dosing solutions were prepared fresh in normal saline, filtered through 0.45 μm Acrodisc filters (Pall Life Sciences, Port Washington, NY, United States), protected from light in amber vials, and used within 3 h. Doses are expressed as mg of free base equivalent for SN30000 and M14, and free acid in the case of M18. […] For evaluation of acute toxicity, mice were observed continuously for 3 h after dosing, and their activity rated on a lethargy score from 0 representing no change in activity to 5 representing animals that were moribund and required culling. For MTD studies, the animals were checked daily for clinical signs of toxicity and body weight change for 2 weeks. In some studies rectal temperature changes after dosing were measured using a BAT-12 digital microprobe thermometer (Physitemp Instruments, Clifton, NJ, United States) at the times specified in the figures. Blood samples were collected from mice at various times by cardiac puncture, seconds after cervical dislocation, into ice-cold tubes containing K2EDTA. These were placed on ice immediately after collection and centrifuged (3,000 g, 3 min) within 10 min to harvest plasma. Plasma and tissues were rapidly frozen in liquid nitrogen before storage at -80°C for subsequent bioanalysis.
# Concentration-time data were analyzed by non-compartmental analysis using Phoenix WinNonlin (ver 6.4, Build 6.4.0768 Pharsight, United States); all AUC values were extrapolated to infinity using the linear trapezoidal rule. A compartmental model for plasma PK after dosing with SN30000 or M14 was fitted using Phoenix NLME v1.3 with random effects on the metabolite volumes of distribution, and temperature effects based on the observed body temperature at the last measurement time. Temperature effects were added or removed until there was no significant change in the log likelihood. Model fits were further assessed by visual inspection of the residuals and predicted PK.
# [2] = system: CHO/POR cells; experiment: Redox cycling: non-respiratory O2 consumption and H2O2 generation; format: cell-based; settings: rotenone-inhibited aerobic CHO/POR cells, cumulative addition
# Procedure: The Chinese hamster ovary cell line 51D1.3 (herein called CHO) and a stable transfectant expressing a soluble form of human P450 oxidoreductase (51D1.3/sPOR, herein called CHO/POR) ([Gu et al., 2009]), were grown in spinner flasks in αMEM plus 5% fetal bovine serum. Late log phase cultures were harvested by centrifugation, resuspended at 5 × 10^5 cells/mL in phenol red-free high-glucose DMEM (Invitrogen) supplemented with 4 mM Glutamax-1, 1 mM sodium pyruvate and 5% FBS. Stirred cell suspensions (2 mL) were transferred to an OXYBOROS O2K oxygraph for simultaneous polarographic measurement of non-respiratory O2 consumption and fluorimetric measurement of H2O2 generation as previously ([Hunter et al., 2012]). Bovine liver superoxide dismutase (10 U), horseradish peroxidase (10 U), Amplex UltraRed (50 nmol) and rotenone (1 nmol), all from Molecular Probes Invitrogen (Eugene, OR), were injected and cumulative drug additions (from saline stock solutions) were made every ∼5 min once endogenous rates had stabilized. Signals were recorded every 2 s, and flux derivatives were estimated ∼2 min after each addition using a Savitzky–Golay smoothing filter (40 data point window) in DATLAB version 4.3.
# Supplementary Figure 4. Time-dependent changes in oxy gen consu mption and H2O2 formation rates induced by SN30000 in rotenone-inhibited CHO/POR cell suspensions, monitored with an OXYBOROS O2K oxygraph. Conditions of the experiment were identical to Fig. 5 except that SN30000 was added as a single bolus to separate cell suspension, rather than by cu mulative addition. A: Representative traces for oxygen consu mption and H2O2 formation rates for a single culture when SN30000 was added to a final concentration of 600 µM, at 4 min. Peak rates were established within 2 min, followed by a decline to a new steady state at approximately 1/3rd of the maximu m rate. Cell viability was > 97% by try pan […]
# killing. […]
# [3] = Stability in mouse liver homogenates (QC samples); format: physicochemical
# From the text: using octa-deuterated internal standards of SN30000, M13 and M14 synthesised as previously reported (Wang et al., 2012). Intra- and inter-day precision (expressed as relative standard deviation (RSD) and accuracy (expressed as percentage of the nominal value) were deter mined by analy sis of replicates (n=6) of low and high quality control (QC) samples on three different days. The lower limit of quantitation (LLOQ) was defined as the lowest concentration providing RSD and accuracy < 20%. Recovery from plasma and liver ho mogenates was tested at the three QC levels. The recoveries were evaluated by comparing extracted samples with blank extracted solutions spiked with analytes of the same amount.
# Matrix effects, defined as the change in response due to the presence of other substances in the samples, were evaluated by comparing the analytes diluted into the blank plasma or liver extracted solution with that of the same stock solutions diluted in water. Three different concentration levels (low, medium and high QC) were evaluated by analysing three samples at each level. Accuracy , precision, recovery and matrix effects were all acceptable over the concentration ranges evaluated for plas ma (Supplementary Table 1) and for liver homogenates (Supplementary Table 2).
# Stability of the analytes in mouse plasma (Supplementary Table 3) or liver homogenate (Supplementary Table 4) was confirmed during holding of QC samples on ice for up to 2 h under nor mal laboratory lighting, although there was a trend towards loss of SN30000 in plasma samples held in clear microcentrifuge tubes which may reflect the known photosensitivity of the compound (Gu et al., 2014). This loss was reduced by use of red microcentrifuge tubes, and eliminated by black tubes. Stability in both matrices was also confir med for one month storage at -80°C and for three freeze-thaw cycles, while MeOH-deproteinised samples w ere stable for 12 h at 4°C in the autosampler (Supplementary Tables
# [4] = liver homogenate deproteinised in 3 vol MeOH, 12 h autosampler at 4°C, nominal SN30000 0.5, M14 0.25, M13 0.1 µM
# [5] = liver homogenate deproteinised in 3 vol MeOH, 12 h autosampler at 4°C, nominal SN30000 5, M14 2.5, M13 1 µM
# [6] = liver homogenate deproteinised in 3 vol MeOH, 12 h autosampler at 4°C, nominal SN30000 50, M14 25, M13 10 µM
# [7] = liver homogenate, 1 month at -80°C, nominal SN30000 0.5, M14 0.25, M13 0.1 µM
# [8] = liver homogenate, 1 month at -80°C, nominal SN30000 5, M14 2.5, M13 1 µM
# [9] = liver homogenate, 1 month at -80°C, nominal SN30000 50, M14 25, M13 10 µM
# [10] = liver homogenate, 1h on ice, clear tubes, nominal SN30000 0.5, M14 0.25, M13 0.1 µM
# [11] = liver homogenate, 1h on ice, clear tubes, nominal SN30000 5, M14 2.5, M13 1 µM
# [12] = liver homogenate, 1h on ice, clear tubes, nominal SN30000 50, M14 25, M13 10 µM
# [13] = liver homogenate, 2h on ice, nominal SN30000 0.5, M14 0.25, M13 0.1 µM
# [14] = liver homogenate, 2h on ice, nominal SN30000 5, M14 2.5, M13 1 µM
# [15] = liver homogenate, 2h on ice, nominal SN30000 50, M14 25, M13 10 µM
# [16] = liver homogenate, three freeze-thaw cycles, nominal SN30000 0.5, M14 0.25, M13 0.1 µM
# [17] = liver homogenate, three freeze-thaw cycles, nominal SN30000 5, M14 2.5, M13 1 µM
# [18] = liver homogenate, three freeze-thaw cycles, nominal SN30000 50, M14 25, M13 10 µM
smiles,measurement,setting,value
"[O-][n+]1nc(CCCN2CCOCC2)[n+]([O-])c2cc3c(cc21)CCC3 [SN30000, 3-(3-Morpholinopropyl)-7,8-dihydro-6H-indeno[5,6-e][1,2,4]triazine 1,4-dioxide]",bioavailability,[1]; in vivo,~30%
same,AUC,"[1]; in vivo, 1.86 mg/kg",0.17 µM·h
same,Cmax,"[1]; in vivo, 1.86 mg/kg",0.59 µM
same,half-life,"[1]; in vivo, 1.86 mg/kg",20.8 min
same,AUC,"[1]; in vivo, 18.6 mg/kg",2.1 µM·h
same,Cmax,"[1]; in vivo, 18.6 mg/kg",6.8 µM
same,half-life,"[1]; in vivo, 18.6 mg/kg",25 min
same,bioavailability,"[1]; in vivo, 78 mg/kg",~70%
same,AUC,"[1]; in vivo, 78.3 mg/kg",31.5 µM·h
same,Cmax,"[1]; in vivo, 78.3 mg/kg",60.8 µM
same,half-life,"[1]; in vivo, 78.3 mg/kg",16.1 min
same,AUC,"[1]; in vivo, 92.8 mg/kg",49.2 µM·h
same,Cmax,"[1]; in vivo, 92.8 mg/kg",77.9 µM
same,half-life,"[1]; in vivo, 92.8 mg/kg",19.7 min
same,AUC,"[1]; in vivo, 186 mg/kg",155 µM·h
same,Cmax,"[1]; in vivo, 186 mg/kg",229 µM
same,half-life,"[1]; in vivo, 186 mg/kg",42.5 min
same,Non-respiratory O2 consumption and H2O2 generation (redox cycling),[2],strongly stimulated O2 consumption and H2O2 formation
same,Bias,[3]; [4],3.36%
same,Measured conc,[3]; [4],0.52 µM
same,Bias,[3]; [5],2.86%
same,Measured conc,[3]; [5],5.14 µM
same,Bias,[3]; [6],6.75%
same,Measured conc,[3]; [6],53.37 µM
same,Bias,[3]; [7],1.98%
same,Measured conc,[3]; [7],0.52 µM
same,Bias,[3]; [8],4.40%
same,Measured conc,[3]; [8],4.77 µM
same,Bias,[3]; [9],4.71%
same,Measured conc,[3]; [9],47.06 µM
same,Bias,[3]; [10],2.46%
same,Measured conc,[3]; [10],0.51 µM
same,Bias,[3]; [11],4.72%
same,Measured conc,[3]; [11],5.24 µM
same,Bias,[3]; [12],6.87%
same,Measured conc,[3]; [12],53.43 µM
same,Bias,[3]; [13],-3.26%
same,Measured conc,[3]; [13],0.48 µM
same,Bias,[3]; [14],2.72%
same,Measured conc,[3]; [14],5.14 µM
same,Bias,[3]; [15],1.20%
same,Measured conc,[3]; [15],50.60 µM
same,Bias,[3]; [16],-10.74%
same,Measured conc,[3]; [16],0.45 µM
same,Bias,[3]; [17],-8.29%
same,Measured conc,[3]; [17],4.59 µM
same,Bias,[3]; [18],4.78%
same,Measured conc,[3]; [18],52.39 µM
[O-][n+]1nc(CCCN2CCOCC2)nc2cc3c(cc21)CCC3 [M14],AUC,"[1]; in vivo, 1.86 mg/kg",0.02 µM·h
same,Cmax,"[1]; in vivo, 1.86 mg/kg",0.053 µM
same,half-life,"[1]; in vivo, 1.86 mg/kg",29.5 min
same,AUC,"[1]; in vivo, 18.6 mg/kg",0.38 µM·h
same,Cmax,"[1]; in vivo, 18.6 mg/kg",1.11 µM
same,half-life,"[1]; in vivo, 18.6 mg/kg",32.5 min
same,AUC,"[1]; in vivo, 78.3 mg/kg",7.52 µM·h
same,Cmax,"[1]; in vivo, 78.3 mg/kg",13.3 µM
same,half-life,"[1]; in vivo, 78.3 mg/kg",20.1 min
same,AUC,"[1]; in vivo, 92.8 mg/kg",10.8 µM·h
same,Cmax,"[1]; in vivo, 92.8 mg/kg",16.8 µM
same,half-life,"[1]; in vivo, 92.8 mg/kg",22.9 min
same,AUC,"[1]; in vivo, 186 mg/kg",24.6 µM·h
same,Cmax,"[1]; in vivo, 186 mg/kg",23 µM
same,half-life,"[1]; in vivo, 186 mg/kg",58.1 min
same,Non-respiratory O2 consumption and H2O2 generation (redox cycling),[2],much lower rates than for SN30000
same,Bias,[3]; [4],3.86%
same,Measured conc,[3]; [4],0.26 µM
same,Bias,[3]; [5],5.73%
same,Measured conc,[3]; [5],2.64 µM
same,Bias,[3]; [6],5.22%
same,Measured conc,[3]; [6],26.30 µM
same,Bias,[3]; [7],1.76%
same,Measured conc,[3]; [7],0.25 µM
same,Bias,[3]; [8],4.04%
same,Measured conc,[3]; [8],2.35 µM
same,Bias,[3]; [9],5.13%
same,Measured conc,[3]; [9],23.54 µM
same,Bias,[3]; [10],5.21%
same,Measured conc,[3]; [10],0.26 µM
same,Bias,[3]; [11],1.78%
same,Measured conc,[3]; [11],2.54 µM
same,Bias,[3]; [12],3.05%
same,Measured conc,[3]; [12],25.76 µM
same,Bias,[3]; [13],8.20%
same,Measured conc,[3]; [13],0.27 µM
same,Bias,[3]; [14],9.32%
same,Measured conc,[3]; [14],2.73 µM
same,Bias,[3]; [15],0.75%
same,Measured conc,[3]; [15],25.19 µM
same,Bias,[3]; [16],-4.84%
same,Measured conc,[3]; [16],0.24 µM
same,Bias,[3]; [17],-5.62%
same,Measured conc,[3]; [17],2.36 µM
same,Bias,[3]; [18],5.39%
same,Measured conc,[3]; [18],26.35 µM
O=C(O)CCc1nc2cc3c(cc2[n+]([O-])n1)CCC3 [M18],AUC,"[1]; in vivo, 1.86 mg/kg",1.06 µM·h
same,Cmax,"[1]; in vivo, 1.86 mg/kg",0.65 µM
same,half-life,"[1]; in vivo, 1.86 mg/kg",102 min
same,AUC,"[1]; in vivo, 18.6 mg/kg",10.8 µM·h
same,Cmax,"[1]; in vivo, 18.6 mg/kg",5.44 µM
same,half-life,"[1]; in vivo, 18.6 mg/kg",220 min
same,AUC,"[1]; in vivo, 78.3 mg/kg",51.5 µM·h
same,Cmax,"[1]; in vivo, 78.3 mg/kg",23.4 µM
same,half-life,"[1]; in vivo, 78.3 mg/kg",35.5 min
same,AUC,"[1]; in vivo, 92.8 mg/kg",116 µM·h
same,Cmax,"[1]; in vivo, 92.8 mg/kg",52.8 µM
same,half-life,"[1]; in vivo, 92.8 mg/kg",145 min
same,AUC,"[1]; in vivo, 186 mg/kg",204 µM·h
same,Cmax,"[1]; in vivo, 186 mg/kg",79.5 µM
same,half-life,"[1]; in vivo, 186 mg/kg",1210 min
c1c2c(cc3nc(CCCN4CCOCC4)nnc13)CCC2 [M13],AUC,"[1]; plasma, 1.86 mg/kg",0.0029 µM·h
same,Cmax,"[1]; plasma, 1.86 mg/kg",0.008 µM
same,half-life,"[1]; plasma, 1.86 mg/kg",19.8 min
same,AUC,"[1]; plasma, 18.6 mg/kg",0.079 µM·h
same,Cmax,"[1]; plasma, 18.6 mg/kg",0.202 µM
same,half-life,"[1]; plasma, 18.6 mg/kg",39.1 min
same,AUC,"[1]; plasma, 78.3 mg/kg",2.64 µM·h
same,Cmax,"[1]; plasma, 78.3 mg/kg",3.85 µM
same,half-life,"[1]; plasma, 78.3 mg/kg",31.8 min
same,AUC,"[1]; plasma, 92.8 mg/kg",5.43 µM·h
same,Cmax,"[1]; plasma, 92.8 mg/kg",6.63 µM
same,half-life,"[1]; plasma, 92.8 mg/kg",26.2 min
same,AUC,"[1]; plasma, 186 mg/kg",14.3 µM·h
same,half-life,"[1]; plasma, 186 mg/kg",53.3 min
same,Bias,[3]; [4],7.07%
same,Measured conc,[3]; [4],0.11 µM
same,Bias,[3]; [5],10.75%
same,Measured conc,[3]; [5],1.11 µM
same,Bias,[3]; [6],6.40%
same,Measured conc,[3]; [6],10.64 µM
same,Measured conc,[3]; [7],0.11 µM
same,Bias,[3]; [8],4.04%
same,Measured conc,[3]; [8],1.03 µM
same,Bias,[3]; [9],5.05%
same,Measured conc,[3]; [9],9.12 µM
same,Bias,[3]; [10],11.64%
same,Measured conc,[3]; [10],0.11 µM
same,Bias,[3]; [11],10.33%
same,Measured conc,[3]; [11],1.10 µM
same,Bias,[3]; [12],7.77%
same,Measured conc,[3]; [12],10.78 µM
same,Bias,[3]; [13],2.48%
same,Measured conc,[3]; [13],0.10 µM
same,Bias,[3]; [14],3.25%
same,Measured conc,[3]; [14],1.03 µM
same,Bias,[3]; [15],1.11%
same,Measured conc,[3]; [15],10.11 µM
same,Bias,[3]; [16],-7.15%
same,Measured conc,[3]; [16],0.093 µM
same,Bias,[3]; [17],-4.26%
same,Measured conc,[3]; [17],0.96 µM
same,Bias,[3]; [18],5.64%
same,Measured conc,[3]; [18],10.56 µM
